# Entries after “also recorded” stand apart in the source; their conditions may differ.
# Columns and labels:
# [1] = relative to sugar; cited from earlier work
# [2] = Stevia-derived MRPs with NHDC and thaumatin, alone and in Redbull sugar free (Example 240); type: in vivo, human; details: added before heating to stevia derived MRP; 150 μl in 100 ml Redbull sugar free
# Method: 150 μl of the each sample was added to 100 ml Redbull sugar free and mixed. The taste profiles of the samples were compared. As a control, a RedBull sugar free sample without the addition of SteviAroma was used.
# Before tasting the tasters discussed the upcoming series of samples and tasted samples with predetermined attributes with varying intensities to find a commonality in description. Four trained tasters blind taste tested independently all samples of a series. They were allowed to re-taste and made notes for the sensory attributes perceived including the relative intensity.
# In the last step the attributes noted were discussed openly to find an acceptable description. In case that more than 1 taster disagreed with the description, the tasting was repeated.
# [3] = Sensory evaluation of combinations of EPCalin, GSGs and SGs and NHDC in water (Example 234); type: in vivo, human; details: 4.5 ppm Thaumatin and/or 50 ppm GSGs and SGs
# Method: 4.5 ppm Thaumatin (equivalent to 10 ppm EPCalin) were dissolved in water. Increasing amounts of NHDC (1-5 ppm) were added to the solution and the sensory properties were evaluated.
# 50 ppm (GSGs and SGs) were dissolved in water. Increasing amounts of NHDC (1-5 ppm) were added to the solution and the sensory properties were evaluated.
# 50 ppm (GSGs and SGs) and 4.5 ppm Thaumatin (equivalent to 10 ppm EPCalin) were dissolved in water. Increasing amounts of NHDC (1-5 ppm) were added to the solution and the sensory properties were evaluated.
# Sweetness Intensity was Rated on 5-Point Scale
# [4] = Assay to test Reducing Power (iron-III reduction test for anti-oxidant potential); details: combinations of amino acids and Reb-A, 10 mM, pH 7.8, 100° C., diluted 1:10 (FIG. 49)
# Method: 0.2 M Sodium phosphate buffer, pH=6.6; 500 mg Potassium ferric(III)cyanide/50 mL water, 10% Trichloroacetic acid; 20 mg Iron-III-Chloride/20 mL water; Calibration samples were prepared with Ascorbic acid in a concentration of 0-100 μg/mL 0.2 M Sodium phosphate buffer, pH=6.6 (freshly prepared); as negative control sample water was used.
# Samples in aqueous solution were used as such or diluted in 0.2 M Sodium phosphate buffer, pH=6.6.
# A 1 mL sample (or calibration standard) was mixed with 1 mL 0.2 M Sodium phosphate buffer, pH=6.6 and 1 mL Potassium ferricyanide solution. The sample was incubated and protected from light at 50° C. for 20 min.
# To the solution was added 1 mL Trichloroacetic acid with thorough mixing.
# A 1 mL of the mixture was diluted with 1 mL H2O and 0.2 mL Iron-Ill-chloride and reacted for 10 minutes; The absorbance was then determined at 700 nm against H2O.
# 10 mM of amino acid and/or 10 mM sugar were dissolved in 10 ml 0.1 mM KH2PO4-buffer, pH=7.8. […]
# 1 ml sample (or calibration standard) solution) was mixed with 0.2 M Sodium phosphate buffer (pH=6.6) and 1 ml Potassium ferric(III)cyanide solution in water (1% w/v) and incubated at 50° C. for 20 minutes. […] The sample was incubated for 10 minutes and absorbance read at 700 nm against a water control. […]
# Quantification was performed by linear regression of calibration test results for ascorbic acid. […]
# [5] = Assay to test DPPH radical-scavenging activity; details: combinations of amino acids and Reb-A, 10 mM, pH 7.8, 100° C., diluted 1:10 (FIG. 50)
# Method: 1 mg 1,1-Diphenyl-2-picrylhydrazyl radical (DPPH)/ml ethanol, dilution to assay concentration were prepared in ethanol (40 μg/mL); Calibration samples were prepared with Ascorbic acid in a concentration of 0-10 μg/mL; as a negative control sample, water was used.
# Samples in aqueous solution were used as such or diluted with water.
# A 0.1 ml sample (or calibration standard) was mixed with 3.9 ml solution of DPPH° (100 μMolar) and reacted while protected from light at room temperature for 30 min. Absorbance was determined at 517 nm against ethanol.
# 10 mM of amino acid and/or 10 mM sugar were dissolved in 10 ml 0.1 mM KH2PO4-buffer, pH=7.8.
# The samples were kept at 100° C. in sealed glass vials (Pyrex 15 ml with screw caps) for 0 (before reaction), 2.5 or 5.0 hours. Thereafter the samples were transferred to an ice water bath and cooled down to room temperature. These samples were diluted 1:10 and used for the test assay for anti-oxidant potential. […]
# 0.2 ml sample (or calibration standard) solution was mixed with 0.2 ml solution of DPPH® (0.1 mM) and 3.6 ml methanol. […] After 3 minutes the absorbance at 517 nm was obtained against ethanol. Quantification was performed by linear regression of calibration test results for ascorbic acid. […]
smiles,measurement,setting,value
OC[C@@H](O)[C@@H](O)[C@H](O)[C@H](O)CO [D-mannitol],natural sweetness,[1],0.55-0.65 times of that of sugar
"COc1ccc(CCC(=O)c2c(O)cc(O[C@@H]3O[C@H](CO)[C@@H](O)[C@H](O)[C@H]3O[C@@H]3O[C@@H](C)[C@H](O)[C@@H](O)[C@H]3O)cc2O)cc1O [NHDC, Neohesperidin dihydrochalcone]",taste profile in sugarfree beverage,[2],improved the mouth-feel and harmony of taste impression yielding a substantially improved taste profile
same,sensory properties of combinations with NHDC,[3],long lasting lingering; also recorded: boosts the lingering
"C=C1C[C@@]23CC[C@H]4[C@@](C)(CCC[C@@]4(C)C(=O)O[C@@H]4O[C@H](CO)[C@@H](O)[C@H](O)[C@H]4O)[C@@H]2CC[C@]1(O[C@@H]1O[C@H](CO)[C@@H](O)[C@H](O[C@@H]2O[C@H](CO)[C@@H](O)[C@H](O)[C@H]2O)[C@H]1O[C@@H]1O[C@H](CO)[C@@H](O)[C@H](O)[C@H]1O)C3 [Reb-A, Rebaudioside A]",active iron-III reduction (anti-oxidant properties),[4],substantial anti-oxidant properties
same,radical scavenging properties (anti-oxidant properties),[5],substantial anti-oxidant properties
C[C@H](CC[C@@H](O[C@@H]1O[C@H](CO)[C@@H](O)[C@H](O)[C@H]1O[C@@H]1O[C@H](CO)[C@@H](O)[C@H](O)[C@H]1O)C(C)(C)O)[C@H]1CC[C@@]2(C)[C@H]3CC=C4[C@@H](CC[C@H](O[C@@H]5O[C@H](CO[C@@H]6O[C@H](CO)[C@@H](O)[C@H](O)[C@H]6O)[C@@H](O)[C@H](O)[C@H]5O)C4(C)C)[C@]3(C)[C@H](O)C[C@]12C [mogroside IV],natural sweetness,[1],126 times of that of sugar
C[C@H](CC[C@@H](O[C@@H]1O[C@H](CO[C@@H]2O[C@H](CO)[C@@H](O)[C@H](O)[C@H]2O)[C@@H](O)[C@H](O)[C@H]1O[C@@H]1O[C@H](CO)[C@@H](O)[C@H](O)[C@H]1O)C(C)(C)O)[C@H]1CC[C@@]2(C)[C@@H]3CC=C4[C@@H](CC[C@H](O[C@@H]5O[C@H](CO[C@@H]6O[C@H](CO)[C@@H](O)[C@H](O)[C@H]6O)[C@@H](O)[C@H](O)[C@H]5O)C4(C)C)[C@]3(C)[C@H](O)C[C@]12C [mogroside V],natural sweetness,[1],256-344 times of that of sugar
